Assay [1] deals with TGF-β dependent luciferase production in Mv1Lu C1 cells (p3TP-Lux reporter). As to the kind of experiment: MV1LU p3TP-Lux assay. In kind it is cell-based. The note with it: TGF-β1 10 pM, 16-20 hrs. The text has this: A stable Mv1Lu clone (C1) containing the p3TP-Lux reporter was created by standard transfection and puromycin selection protocols. This stable clone was used to screen the example compounds for their ability to inhibit TGF-β dependent luciferase production as briefly described below: • 1. Plated Mv1Lu C1 cells in Wallac™ Black Isoplates • 2. Allowed cells to adhere overnight. • 3. Removed media and replaced with 0.5% FBS DMEM media • 4. Added the compound dilution series in 0.5% FBS/DMEM containing 1% DMSO such that the final compound concentration ranged from 20 uM to 0.1 nM and the final DMSO concentration was 0.2%. • 5. Incubated at 37° C./5% CO2 for 2 hrs. • 6. Added 0.5% FBS/DMEM as control or TGF-β1 diluted in 0.5% FBS/DMEM (final concentration of 10 pM) to the −/+ TGF-β wells respectively • 7. Incubated for 16-20 hrs. at 37° C./5% CO2 • 8. Removed media and rinsed 1× with PBS. • 9. Removed PBS and lysed the cells with 1× Passive Lysis Buffer (Promega) at room temperature. • 10. Counted relative luciferase activity on the MicroBeta JET by injecting Luciferase Assay Reagent II (PROMEGA).
The use of the above assay in measuring TGF-β responsive activity is described in Wrana, et al. Cell 71: 1003-1014 (1992).

In another assay the target is T1, p38α/SAPK2α (Homo sapiens, UniProt Q16539).
T1 construct: purchased Upstate Biotechnology 14-251
As to the kind of experiment: p38α in vitro kinase assay. The format is biochemical. Particulars: 5 nM p38α, 62.5 uM EGFR substrate, 100 uM ATP, 30° C., 40 min. Here is the method: p38α in vitro Kinase Assay
Active p38α/SAPK2α was purchased from Upstate Biotechnology (cat#14-251). A known p38α substrate from EGFR was used in the assay (Young, et al. (1997) JBC 272: 12116-12121).
Reactions were performed in 1× kinase buffer (25 mM Tris-HCl pH 7.5, 5 mM β-glycerophosphate, 2 mM DTT, 0.1 mM Na3VO4, 10 mM MgCl2, 1 uM Microcystin) with 5 nM p38α, 62.5 uM substrate, 40 uM to 0.2 nM compound dilution series in 1×KB/16% DMSO (final 4% DMSO concentration). Reactions were started by addition of 100 uM ATP (final concentration) with 1 uCi ^33P-γ-ATP in 1×KB and incubated at 30° C. for 40 min. Reactions were stopped with H3PO4 and quantitated on Millipore PH phosphocellulose filter plates by liquid scintillation counting on a MicroBeta JET.

Assay [2] concerns the target T2, TGF-β Type II (RII WT) receptor (Homo sapiens, UniProt P37173).
T2 construct: The 6×-HIS tagged cytoplasmic kinase domain of each receptor was expressed and purified from Sf9 insect cell lysates; 6xHis; made in house; host or cells: Sf9 insect cells
T2 sequence (P37173 244-544 limits assumed): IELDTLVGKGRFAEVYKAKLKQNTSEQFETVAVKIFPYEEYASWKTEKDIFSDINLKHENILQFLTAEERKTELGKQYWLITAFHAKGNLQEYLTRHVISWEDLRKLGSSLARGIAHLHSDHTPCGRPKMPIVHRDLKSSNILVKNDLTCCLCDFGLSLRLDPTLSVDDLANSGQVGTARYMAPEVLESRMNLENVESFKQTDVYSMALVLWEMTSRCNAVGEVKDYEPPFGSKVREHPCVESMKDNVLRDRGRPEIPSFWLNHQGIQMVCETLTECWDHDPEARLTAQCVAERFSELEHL
Nature of the assay: TGF-β Receptor II (RII WT) in vitro kinase reaction. In kind it is biochemical. The note with it: 6×-HIS cytoplasmic kinase domain, 4 uM ATP, 30° C., 40 min. The method, then: (§1) TGF-β Receptor I and II Purification and in vitro Kinase Reactions
(§2) For TGF-β Type I (RIT204D) and Type II (RII WT) Receptors: The 6×-HIS tagged cytoplasmic kinase domain of each receptor was expressed and purified from Sf9 insect cell lysates as briefly described below:
(§3) Cell pellets after 48-72 hrs of infection were lysed in lysis buffer (LB: 50 mM Tris pH 7.5, 150 mM NaCl, 50 mM NaF, 0.5% NP40 with freshly added 20 mM, β-mercaptoethanol, 10 mM imidazole, 1 mM PMSF, 1×EDTA-free Complete Protease Inhibitor (Boehringer Mannheim).
Cell lysates were clarified: by centrifugation and […] filtered prior to purification by Ni/NTA affinity chromatography (Qiagen).
Equilibrate with 10 CV of LB, load sample, wash with 10 CV RIPA buffer (50 mM Tris pH 7.5, 150 mM NaCl, 1% NP40, 1 mM EDTA, 0.25% sodium deoxycholate, added fresh 20 mM β-mercaptoethanol, 1 mM PMSF), wash with 10 CV LB, wash with 10 CV 1×KB (50 mM Tris pH 7.5, 150 mM NaCl, 4 mM MgCl2, 1 mM NaF, 2 mM β-mercaptoethanol), elute with a linear gradient of 1×KB containing 200 mM Imidazole.
Both enzymes were approximately 90% pure and had autophosphorylation activity.
(§4) Reactions: 170-200 nM enzyme in 1×KB, compound dilution series in 1×KB/16% DMSO (20 uM to 1 nM final concentration with 4% DMSO final concentration), reactions started by adding ATP mix (4 uM ATP/1 uCi ^33P-[…]-ATP final concentrations) in 1×KB.
(§5) Reactions were incubated at 30° C. for 1 hr RIT204D or 40 min for RII WT. Reactions were stopped and quantitated using standard TCA/BSA precipitation onto Millipore FB glass fiber filter plates and by liquid scintillation counting on a MicroBeta JET.

In assay [3] the target is T3, TGF-β Type I (RIT204D) receptor (Homo sapiens, UniProt P36897, T204D).
T3 construct: The 6×-HIS tagged cytoplasmic kinase domain of each receptor was expressed and purified from Sf9 insect cell lysates; 6xHis; made in house; host or cells: Sf9 insect cells
T3 sequence (P36897 148-503 T204D limits assumed): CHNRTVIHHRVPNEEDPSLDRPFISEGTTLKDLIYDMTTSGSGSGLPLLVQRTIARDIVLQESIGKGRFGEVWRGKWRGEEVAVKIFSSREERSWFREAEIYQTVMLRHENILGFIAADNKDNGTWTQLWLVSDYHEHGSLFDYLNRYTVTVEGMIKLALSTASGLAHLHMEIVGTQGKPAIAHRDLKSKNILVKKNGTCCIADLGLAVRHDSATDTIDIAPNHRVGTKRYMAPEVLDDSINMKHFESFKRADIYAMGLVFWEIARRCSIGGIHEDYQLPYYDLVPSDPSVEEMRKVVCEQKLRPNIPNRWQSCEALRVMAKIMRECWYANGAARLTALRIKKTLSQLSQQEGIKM
Nature of the assay: TGF-β Receptor I (RIT204D) in vitro kinase reaction. The format is biochemical. The note with it: 6×-HIS cytoplasmic kinase domain, 4 uM ATP, 30° C., 1 hr. The method, then: as §1, §2, §3, §4, §5

The record followed here is patent US7087626B2, “Pyrrole derivatives as pharmaceutical agents” (Eli Lilly and Company, priority 2001, dated 2006).

Where only a bound is given, the exact number is not on record here.

T1 sequence (Q16539 whole entry): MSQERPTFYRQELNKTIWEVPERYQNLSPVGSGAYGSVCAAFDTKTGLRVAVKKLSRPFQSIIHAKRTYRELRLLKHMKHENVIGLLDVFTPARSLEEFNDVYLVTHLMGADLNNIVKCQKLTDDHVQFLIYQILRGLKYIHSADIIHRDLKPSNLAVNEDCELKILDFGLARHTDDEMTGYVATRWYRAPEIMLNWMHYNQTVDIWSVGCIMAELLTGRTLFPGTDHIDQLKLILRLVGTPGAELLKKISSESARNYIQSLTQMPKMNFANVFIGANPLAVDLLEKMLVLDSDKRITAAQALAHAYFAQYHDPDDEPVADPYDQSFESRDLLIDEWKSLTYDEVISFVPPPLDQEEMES

`Cc1cccc(-c2nn3c(c2-c2ccnc4ccccc24)CC(c2ccc(F)cc2)C3)n1` (single isomer, unassigned) [4-[5-(4-Fluoro-phenyl)-2-(6-methyl-pyridin-2-yl)-5,6-dihydro-4H-pyrrolo[1,2-b]pyrazol-3-yl]-quinoline] returned an IC50 in assay [1] of less than 20 µM.

`Cc1cccc(-c2nn3c(c2-c2cccc4ccccc24)CCC3)n1` [2-(6-methyl-pyridin-2-yl)-3-naphthalen-1-yl-5,6-dihydro-4H-pyrrolo[1,2-b]pyrazole]: the 50% inhibitory concentration (IC50) in assay [1] was less than 20 µM.

At p38α/SAPK2α, `CN(C)CC(=O)Nc1ccc2c(-c3c(-c4ccccn4)nn4c3CCC4)ccnc2c1` [2-Dimethylamino-N-[4-(2-pyridin-2-yl-5,6-dihydro-4H-pyrrolo[1,2-b]pyrazol-3-yl)-quinolin-7-yl]-acetamide] had an IC50 of less than 20 µM.

Take `Cc1cccc(-c2nn3c(c2-c2ccnc4ccc(C(C)(C)O)cc24)CCC3)n1` [2-{4-[2-(6-Methyl-pyridin-2-yl)-5,6-dihydro-4H-pyrrolo[1,2-b]pyrazol-3-yl]-quinolin-6-yl}-propan-2-ol]: the half-maximal inhibitory concentration (IC50) in assay [1] is less than 20 µM.

`Clc1cc(-c2c(-c3ccccn3)nn3c2CCC3)ccn1` [3-(2-Chloro-pyridin-4-yl)-2-pyridin-2-yl-5,6-dihydro-4H-pyrrolo[1,2-b]pyrazole] showed an IC50 in assay [1] of less than 20 µM.

At p38α/SAPK2α, `Cc1cccc(-c2nn3c(c2-c2ccc4c(c2)OCO4)CCC3)n1` [3-Benzo[1,3]dioxol-5-yl-2-(6-methyl-pyridin-2-yl)-5,6-dihydro-4H-pyrrolo[1,2-b]pyrazole] registered an IC50 of less than 20 µM.

`c1ccc(-c2nn3c(c2-c2ccc4ccccc4c2)CCC3)nc1` [3-Naphthalen-2-yl-2-pyridin-2-yl-5,6-dihydro-4H-pyrrolo[1,2-b]pyrazole] came in with an IC50 on p38α/SAPK2α of less than 20 µM.

Turning to `OCCCSc1ccc2c(-c3c(-c4ccccn4)nn4c3CCC4)ccnc2c1` [3-[4-(2-Pyridin-2-yl-5,6-dihydro-4H-pyrrolo[1,2-b]pyrazol-3-yl)-quinolin-7-ylsulfanyl]-propan-1-ol], the IC50 (in assay [2]; at p38α/SAPK2α) was less than 20 µM in each case.

For `CNC(=O)c1ccc2c(-c3c(-c4ccccn4)nn4c3CCC4)ccnc2c1` [4-(2-Pyridin-2-yl-5,6-dihydro-4H-pyrrolo[1,2-H]pyrazol-3-yl)-quinoline-7-carboxylic acid methylamide], the IC50 (in assay [2]; in assay [3]; against p38α/SAPK2α) was less than 20 µM in each case.

The compound `O=C(NCCc1c[nH]cn1)c1ccc2c(-c3c(-c4ccccn4)nn4c3CCC4)ccnc2c1` [4-(2-Pyridin-2-yl-5,6-dihydro-4H-pyrrolo[1,2-b]pyrazol-3-yl)-quinoline-7-carboxylic acid [2-(1H-imidazol-4-yl)-ethyl]-amide] registered an IC50 against p38α/SAPK2α of less than 20 µM.

Regarding `Fc1ccc(-c2nn3c(c2-c2ccnc4ccccc24)CCC3)cc1` [4-[2-(4-Fluoro-phenyl)-5,6-dihydro-4H-pyrrolo[1,2-b]pyrazol-3-yl]-quinoline], on p38α/SAPK2α, the IC50 was less than 20 µM.

In turn, `Cc1cccc(-c2nn3c(c2-c2ccnc4ccc(C(=O)O)cc24)CCC3)n1` [4-[2-(6-Methyl-pyridin-2-yl)-5,6-dihydro-4H-pyrrolo[1,2-b]pyrazol-3-yl]-quinoline-6-carboxylic acid] had an IC50 against p38α/SAPK2α of less than 20 µM.

For `Cc1cccc(-c2nn3c(c2-c2ccnc4ccc(-c5ccc(F)cc5)cc24)CCC3)n1` [6-(4-Fluoro-phenyl)-4-[2-(6-methyl-pyridin-2-yl)-5,6-dihydro-4H-pyrrolo[1,2-b]pyrazol-3-yl]-quinoline], the concentration for half-maximal inhibition (IC50) against p38α/SAPK2α is less than 20 µM.

The compound `CSc1ccc2nccc(-c3c(-c4ccccn4)nn4c3CCC4)c2c1` [6-Methylsulfanyl-4-(2-pyridin-2-yl-5,6-dihydro-4H-pyrrolo[1,2-b]pyrazol-3-yl)-quinoline] yielded a concentration for half-maximal inhibition (IC50) on p38α/SAPK2α of less than 20 µM.

On p38α/SAPK2α, `c1ccc(-c2nn3c(c2-c2ccnc4cc(OCCCn5ccnc5)ccc24)CCC3)nc1` [7-(3-Imidazol-1-yl-propoxy)-4-(2-pyridin-2-yl-5,6-dihydro-4H-pyrrolo[1,2-b]pyrazol-3-yl)-quinoline] returned a concentration for half-maximal inhibition (IC50) of less than 20 µM.

`Cc1cccc(-c2nn3c(c2-c2ccnc4cc(N)ccc24)CCC3)n1` [7-Amino-4-[2-(6-Methyl-pyridin-2-yl)-5,6-dihydro-4H-pyrrolo[1,2-b]pyrazol-3-yl]-quinoline] yielded an IC50 against p38α/SAPK2α of less than 20 µM.

Compound `COc1ccc2c(-c3c(-c4ccccn4)nn4c3CCC4)ccnc2c1` [7-Methoxy-4-(2-pyridin-2-yl-5,6-dihydro-4H-pyrrolo[1,2-b]pyrazol-3-yl)-quinoline] came in with an IC50 on p38α/SAPK2α of less than 20 µM.

Take `CN1CCN(CCCOc2ccc3c(-c4c(-c5ccccn5)nn5c4CCC5)ccnc3c2)CC1` [7-[3-(4-Methyl-piperazin-1-yl)-propoxy]-4-(2-pyridin-2-yl-5,6-dihydro-4H-pyrrolo[1,2-b]pyrazol-3-yl)-quinoline]: the IC50 against p38α/SAPK2α is less than 20 µM.

In the case of `Cc1cccc(-c2nn3c(c2-c2ccc(F)cc2)CC[C@@H]3CC#N)n1` [(R)-[3-(4-Fluoro-phenyl)-2-(6-methyl-pyridin-2-yl)-5,6-dihydro-4H-pyrrolo[1,2-b]pyrazol-6-yl]-acetonitrile], the IC50 against p38α/SAPK2α is less than 20 µM.

For the compound `CN(C)CCCOc1ccc2c(-c3c(-c4ccccn4)nn4c3CCC4)ccnc2c1` [Dimethyl-{3-[4-(2-pyridin-2-yl-5,6-dihydro-4H-pyrrolo[1,2-b]pyrazol-3-yl)-quinolin-7-yloxy]-propyl}-amine], the IC50 in assay [2] and in assay [3] was less than 20 µM throughout.

With `CN(C)CCNC(=O)COc1ccc2c(-c3c(-c4ccccn4)nn4c3CCC4)ccnc2c1` [N-(2-dimethylamino-ethyl)-2-[4-(2-pyridin-2-yl-5,6-dihydro-4H-pyrrolo[1,2-b]pyrazol-3-yl)-quinolin-7-yloxy]-acetamide], the IC50 in assay [2] and in assay [3] was less than 20 µM throughout.

The IC50 is the point on the concentration scale where inhibition reaches its midpoint. A lower IC50 goes with higher potency.
